Source: patent US5574059A, “Treating disorders mediated by vascular smooth muscle cell proliferation” (priority 1995, dated 1996)
Entries after “also recorded” stand apart in the source; their conditions may differ.

Tests used:
I2 imidazoline receptors [1] = assay: inhibition of 3H-idazoxan (5 nM) binding to rat aortic smooth muscle cell membranes; details: for inhibition of 3H-idazoxan binding, in words / Ki: 3H-idazoxan 5 nM; for Ki: Table 2, rat aortic smooth muscle cell membranes, read-out: Ki
Experimental: (§1) Binding to I2 imidazoline receptors is determined by the following assay. Membranes are prepared from cultured cells for ligand binding as described in Regunathan, S., et al, Biochem. Pharmacol. 45, 1667-1675 (1993) and Regunathan, S., et al, J. Neurosci. Res. 34, 681-688 (1993) and the disclosure in these on this is incorporated herein by reference. In particular, harvested rat aortic smooth muscle cells are homogenized in Hepes-sucrose buffer (pH 7.4) with a Teflon-glass homogenizer and centrifuged at 1000 × g for 10 minutes. The pellets are suspended in ice-cold Tris-HCl buffer (pH 7.7) with 5mM ethylene diamine tetracetic acid and homogenized using a Polytron (Brinkman Instruments) for 10 seconds. The homogenate is centrifuged at 40,000 × g for 30 minutes to produce a membrane pellet. The membrane pellet is washed three times by resuspending in buffer and re-centrifuging. The washed pellet is suspended in fresh Tris-HCl buffer (pH 7.4) to provide approximately 100 μg protein per assay tube. Binding assays are performed in Tris-HCl buffer (pH 7.7) using 5 nM of […]. Non-specific binding is defined by 100 μM of unlabelled idazoxan which will inhibit the specific binding of ^3 H-idazoxan. Thus the binding remaining in the presence 100 μM of idazoxan is due to non-specific binding and this will be substracted from total binding to calculate the specific binding. Following incubation at 25° C. for 30 minutes, reaction is terminated by rapid vacuum filtration over Whatman GF/B filters and washed with 10 ml of ice-cold buffer. Filters are suspended in scintillation fluid and radioactivity counted in a liquid scintillation counter. Membrane protein is assayed by Coomassie Blue method (Pierce) using bovine serum albumin as standard.
Determination of inhibition constant (Ki) for each drug is determined as follows: The binding of ^3 H-idazoxan to membranes of vascular smooth muscle cells is determined in the presence of 0.1 nM to 100 μM concentrations of potential drug. The percent inhibition of specific binding of ^3 H-idazoxan by each concentration is calculated and plotted against concentration. The data is analyzed by non-linear curve fitting program, LIGAND and the IC50 value for each potential drug is calculated. The affinity for each drug (Ki) for I2 imidazoline receptors is calculated using the formula Ki =IC50 /1+L/Kd where L is the concentration of ^3 H-idazoxan used for binding and Kd is the dissociation constant for ^3 H-idazoxan for I2 imidazoline receptors. The dissociation constant (Kd) is determined by Scatchard analysis of the saturation binding of ^3 H-idazoxan using the formula [formula] where B and F are the amount of bound and free ligand, respectively, and Bmax is the number of binding sites.
(§2) Primary cultures of rat-aortic smooth muscle cells were prepared by a modification (described in Erlinge, Do, et al, Am. J. Physiol. 265, H1089-1097, 1993) of the method of Meyer-Lehnert and Schrier (Meyer-Lehnert, H., et al, Hypertension 13,350-361, 1989), the disclosure of these cited articles being incorporated herein by reference. Briefly, rats were killed by anesthetic overdose and the aorta were removed and incubated with collagenase (2 mg/ml) in Dulbecco's modified Eagle's minimum essential medium (DMEM). The vessel was stripped of adventitia, cut longitudinally and the intima scraped away. After further collagenase treatment, the remaining tissue was passed 20 times through 18 and 16 gauge needles. The resulting cell suspension was centrifuged at 500 × g for 5 minutes and resuspended in DMEM containing penicillin (100 units/ml), streptomycin (100 μg/ml), 2 mM L-glutamine and 10% fetal calf serum. The suspended cells were plated in T-75 flasks, cultured until confluent, and subcultured in 100 mm plates. The confluent cells were harvested and membranes were prepared. Cell viability was determined by trypan blue exclusion.

[2] = test system: rat aortic smooth muscle cells; assay: serum-stimulated proliferation, 3H-thymidine incorporation into DNA; type: cell-based; details: 10% fetal calf serum stimulated; for 3H-thymidine incorporated (IC50), N symbol / IC50: 24 h; for IC50: Rattus norvegicus, read-out: 3H-thymidine incorporated (IC50)
Experimental: (§3) Inhibition of serum-stimulated proliferation of rat aortic smooth muscle cells is determined as follows: The antiproliferative effect of potential drug is determined by measuring the incorporation of ^3 H-thymidine into cellular DNA. Exposure of quiescent vascular smooth muscle cell to serum, which contains many growth factors, results in a large increase in cellular proliferation as measured by ^3 H-thymidine incorported into DNA. The inhibitory effect of potential drug on serum-stimulated proliferation is tested by adding a drug before the addition of serum and determining if the serum-stimulated proliferation is reduced. […] In that event, antagonizing of the antiproliferative effect of idazoxan is determined by adding antagonist before the addition of idazoxan to serum-stimulated vascular smooth muscle cells.
In this experiment, the proliferation of vascular smooth muscle cells was determined by measuring DNA replication. The incorporation of ^3 H-thymidine into DNA was used to measure the replication of DNA as described in Erlinge, D., et al, Am. J. Physiol. 265, H1089-H1097 (1993) which is incorporated herein by reference.
(§4) Rat aortic smooth muscle cells prepared as described in In Vitro Example 1 were plated into 24-well plates at a density of about 30,000 cells/well in 10% fetal calf serum (FCS). After 48 hours, the cells were starved in 0.5% FCS for another 48 hours to decrease proliferation and induce quiescence. The medium was replaced by serum-free medium 24 hours prior to addition of drug (drugs are described below) and 10% fetal calf serum or only 10% fetal calf serum in the case of the control. The cells were then incubated for 24 hours and ^3 H-thymidine (1 μCi/well) was added at hour 20. At the end of the 24 hour period, the medium was aspirated and the cells were washed three times with phosphate-buffered saline and twice with ice-cold trichloroacetic acid. Fixed cells were then solubilized in 0.2M NaOH and sonicated. A 100 μl aliquot was used for scintillation counting.

α2 -adrenergic receptors = assay: specific binding of 3H-PAC and 3H-rauwolscine to smooth muscle cell membranes; design: species or system rat; details: for specific binding of 3H-PAC / 3H-rauwolscine: 5 nM ligand, non-specific binding defined by 100 μM cold ligand; for binding selectivity of radioligand, in words (α2-adrenergic receptors): with epinephrine competition
Experimental: as §2, with “exclusion. Smooth muscle cells were phenotypically defined by immunostaining with anti-smooth muscle actin (Sigma). The cultured cells were usually used for only about 10 passages after which they were replaced by freshly prepared cells.” for “exclusion.”
Membranes were prepared from the cultured cells as described in Regunathan et al, Biochem. Pharmacol. 45, 1667-1675 (1993). Membranes were incubated with 5 nM of ^3 H-idazoxan, ^3 H-PAC or ^3 H-rauwolscine with non-specific binding defined by 100 μM cold ligand as described above.

I2 imidazoline receptors [3] = assay: saturation/specific binding of 3H-idazoxan to smooth muscle cell membranes (Scatchard analysis); design: species or system rat
Experimental: as §1, with “Membrane protein is assayed by Coomassie Blue method (Pierce) using bovine serum albumin as standard.” left out
Primary cultures of rat-aortic smooth muscle cells were prepared by a modification (described in Erlinge, Do, et al, Am. J. Physiol. 265, H1089-1097, 1993) of the method of Meyer-Lehnert and Schrier (Meyer-Lehnert, H., et al, Hypertension 13,350-361, 1989), the disclosure of these cited articles being incorporated herein by reference. […] Cell viability was determined by trypan blue exclusion.

[4] = test system: rat aortic smooth muscle cells; assay: antagonism of the antiproliferative effect in serum-stimulated smooth muscle cells; type: cell-based
Experimental: as §3
as §4, with “After” for “Rat aortic smooth muscle cells prepared as described in In Vitro Example 1 were plated into 24-well plates at a density of about 30,000 cells/well in 10% fetal calf serum (FCS). After”
To test this, the effect of tolazoline (100 μM) on the concentration/response curve was determined.

Row | Compound | inhibition of 3H-idazoxan binding, in words (I2 imidazoline receptors [1]) | Ki (I2 imidazoline receptors [1]) | inhibition of vascular smooth muscle cell proliferation, in words [2] | 3H-thymidine incorporated (IC50), N symbol [2] | other results
1 | N=C(N)N/N=C/c1c(Cl)cccc1Cl [Guanabenz] | low | 51 ± 6.5 µM | – | – | –
2 | COc1nc(C)nc(Cl)c1N=C1NCCN1 [Moxonidine] | low | 55 ± 4 µM | had no effect | N | –
3 | c1ccc(C2CC2)c(OCC2=NCCN2)c1 [Cirazoline, cyclopropyl phenoxy imidazoline] | – | – | – | – | IC50 [2]: 286 ± 19 µM
4 | CNC[C@H](O)c1ccc(O)c(O)c1 [Epinephrine] | – | – | – | – | reduction of 3H-idazoxan binding (I2 imidazoline receptors [1]; even at 100 μM epinephrine, failed to reduce by greater than): ≤ 10%; inhibition of specific binding of 3H-PAC (α2 -adrenergic receptors; epinephrine 10 μM): completely inhibited; inhibition of specific binding of 3H-rauwolscine (α2 -adrenergic receptors; epinephrine 10 μM): completely inhibited
5 | N=C(N)NC(=O)c1nc(Cl)c(N)nc1N [Amiloride] | low | 75 ± 9.6 µM | – | – | –
6 | c1ccc2c(c1)OCC(C1=NCCN1)O2 (stereo not drawn) [^3 H-idazoxan] | – | – | – | – | specific binding of 3H-idazoxan (I2 imidazoline receptors [3]; 5 nM ligand, non-specific binding defined by 100 μM cold ligand): greater than 70%; Kd (I2 imidazoline receptors [3]; Scatchard analysis, single-site fit, in presence of 10 μM epinephrine): 8.9 ± 1.2 nM; binding selectivity of radioligand, in words (non-adrenergic sites) (I2 imidazoline receptors [3]; with epinephrine competition): binds almost exclusively to non-adrenergic sites
7 | Nc1cc(Cl)c(NC2=NCCN2)c(Cl)c1 [^3 H-PAC] | – | – | – | – | specific binding of 3H-PAC / 3H-rauwolscine (α2 -adrenergic receptors): greater than 70%; binding selectivity of radioligand, in words (α2-adrenergic receptors) (α2 -adrenergic receptors): primarily bind to α2 -adrenergic receptors
8 | c1ccc(CC2=NCCN2)cc1 [Tolazoline] | binding with high affinity | 0.256 ± 0.023 µM | without any effect; also recorded: failed to inhibit cellular proliferation | N | effect on the concentration/response curve for idazoxan ([4]; tolazoline 100 μM): markedly shifted the concentration/response curve for idazoxan to the right
9 | Cc1ccc(N(CC2=NCCN2)c2cccc(O)c2)cc1 [Phentolamine] | – | 10.5 ± 1.4 µM | – | N | –
10 | COC(=O)C1C(O)CCC2CN3CCc4c([nH]c5ccccc45)C3CC21 (stereo not drawn) [^3 H-rauwolscine] | – | – | – | – | specific binding of 3H-PAC / 3H-rauwolscine (α2 -adrenergic receptors): greater than 70%; binding selectivity of radioligand, in words (α2-adrenergic receptors) (α2 -adrenergic receptors): primarily bind to α2 -adrenergic receptors
11 | C1COC(NC(C2CC2)C2CC2)=N1 [Rilmenidine] | low | 85 ± 9 µM | had no effect | N | –
12 | c1ccc2c(CC3=NCCN3)cccc2c1 [Naphazoline, 2-(1-naphthylmethyl) imidazoline] | – | – | – | – | IC50 [2]: 52.3 ± 5.6 µM
13 | Clc1cccc(Cl)c1N=C1NCCN1 [Clonidine] | – | 2.5 ± 0.65 µM | had no effect | N | –
14 | COC(=O)[C@H]1[C@H]2C[C@H]3c4[nH]c5ccccc5c4CCN3C[C@H]2CC[C@@H]1O [Rauwolscine] | without effect | > 100 µM | had no effect | N | effect of rauwolscine on the anti-proliferative response [4]: blocked
